“Also recorded” adds a separate entry of the source.
How the values were obtained:
[1] = system: Heparanase gene expression; test: Real-Time PCR of Heparanase gene expression in U266 myeloma cells; assay type: cell-based; conditions: DF 150 and 400 μg/ml, 24 h, vs saline control, triplicate
Method: (§1) To evaluate the effect of DF either on Heparanase expression and its activity, the U266 and HMEC cells were incubated for 24 h with DF at different concentrations or saline (control cells). After incubation with Defibrotide, the cells were washed with phosphate-buffered saline (PBS) pH 7.4, and different U266 and HMEC samples were prepared for different experiments.
(§2) RNA has been isolated from U266 and HMEC cells (1.5×10^5 Cells/ml) treated with saline (control) or DF at doses of 150 and 400 μg/ml for 24 h. To isolate the RNA were used the RNeasy Mini Kit from Qiagen according the manufacture's instructions.
(§3) The 1% agarose gel electrophoresis, stained with Ethidium Bromide, was performed on all samples to check for presence of clear 28S and 18S ribosomal subunit bands. […]
(§4) In order to perform the Real Time PCR was used the SYBER Green PCR Master Mix Reagent (SYBER Green PCR--Bio-Rad). Direct detection of polymerase chain reaction (PCR) product was monitored by measuring the increase in fluorescence caused by the binding of SYBER Green to double-stranded DNA. […]
Real-Time PCR was performed on cDNAs prepared from U266 cells treated with saline (control) or DF at dose of 150 and 400 μg/ml. The experiments were performed in triplicate and the results are expressed as mRNA levels normalized by the housekeeping actin gene.

[2] = system: Heparanase gene expression; test: Real-Time PCR of Heparanase gene expression in HMEC cells; assay type: cell-based, human; conditions: DF 150 μg/ml, 24 h, vs saline control, triplicate
Method: as §1, §2, §3, §4
Real-Time PCR was performed on cDNAs prepared from HMEC cells treated with saline (control) or DF at dose of 150 μg/ml. The experiments were performed in triplicate and the results are expressed as mRNA levels normalized by the housekeeping actin gene.

Heparanase = biological target: T1, Heparanase (Homo sapiens, UniProt Q9Y251); test: Heparanase activity assay (Heparan Degrading Enzyme Assay Kit) in U266 extracts; assay type: cell-based; conditions: U266 cells, DF 50, 100 and 150 μg/ml, 24 h, vs saline control, triplicate
T1 construct: The Heparanase activity was measured in U266 extracts (1×10^5 Cell/ml of extraction buffer) by a commercial Heparan Degrading Enzyme Kit; endogenous in cells; host or cells: U266 myeloma cells (cell extract)
T1 sequence (Q9Y251 158-543 limits assumed): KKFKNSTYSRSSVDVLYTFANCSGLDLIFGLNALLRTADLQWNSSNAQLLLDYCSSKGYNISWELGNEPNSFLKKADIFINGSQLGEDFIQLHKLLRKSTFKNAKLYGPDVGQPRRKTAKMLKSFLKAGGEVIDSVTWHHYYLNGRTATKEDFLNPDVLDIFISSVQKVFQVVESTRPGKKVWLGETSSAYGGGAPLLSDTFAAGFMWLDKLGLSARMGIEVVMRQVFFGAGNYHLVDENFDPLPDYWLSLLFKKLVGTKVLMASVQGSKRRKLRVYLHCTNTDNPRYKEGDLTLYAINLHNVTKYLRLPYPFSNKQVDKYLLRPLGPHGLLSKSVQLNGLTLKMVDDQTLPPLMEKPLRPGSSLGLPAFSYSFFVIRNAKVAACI
T1 sequence (Q9Y251 36-109 limits assumed): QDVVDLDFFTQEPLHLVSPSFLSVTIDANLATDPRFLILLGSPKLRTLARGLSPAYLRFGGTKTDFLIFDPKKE
Method: as §1
The Heparanase activity was measured in U266 extracts (1×10^5 Cell/ml of extraction buffer) by a commercial Heparan Degrading Enzyme Kit (Takara-bio Inc.) according to manufacturer's instruction. The U266 cells have been treated with saline (control) or DF at doses of 50, 100 and 150 μg/ml for 24 h.
Heparan Degrading Enzyme Assay Kit measure the activity of heparan degrading enzyme in cultured cells, utilizing the property that heparan-like molecules and bFGF (basic fibroblast growth factor) combine each other. CBD-FGF is a fusion protein of cell-binding domain of human fibronectin and human fibroblast growth factor (Takara-bio Inc.). […]
The activity of Heparanase were measured using the Heparanse Degrading Enzyme Assay kit on U266 cells treated with saline (control) or Defibrotide at dose of 50, 100 and 150 μg/ml. The experiments were performed in triplicate and the activity of Heparanase is shown with decrease of absorbance.

defibrotide [DF]
Effect on Heparanase gene expression (mRNA levels normalized by the housekeeping actin gene) [1]: acts on U266 myeloma cells line through altering the Heparanase gene expression; also recorded: down regulation of Heparanase gene
Effect on Heparanase gene expression (mRNA levels normalized by the housekeeping actin gene) [2]: acts on Microvascular endothelial cells through altering the Heparanase gene expression; also recorded: downregulation of Heparanase gene expression on HMEC cells
Effect on enzymatic activity of Heparanase (shown with decrease of absorbance) (Heparanase): interferes on the Heparanase activity in the myeloma cell line; also recorded: decrease of its enzymatic activity
